For test [1], the system named is KARPAS-422 (EZH2 Y641N mutant human diffuse large B-cell lymphoma). The test is described as follows: Cell growth inhibitory activity evaluation, KARPAS-422. It is filed as cell-based. To be noted: KARPAS-422 (Lymphoma). The protocol: (§1) Cell Growth Inhibitory Activity Evaluation
(§2) Cells were purchased from ATCC (G401 (human kidney-derived rhabdoid tumor), HepG2, LNCaP, LS180, MV4; 11, NCI-H1563, NCI-H1703, NCI-H520, NCI-H522, NCI-N87, RS4; 11, and THP-1), Deutsche Sammlung von Mikroorganismen und Zellkulturen GmbH (DSMZ) (KARPAS-422 (EZH2 Y641N mutant human diffuse large B-cell lymphoma) and KOPN8), and Health Science Research Resource Bank (OVMANA). […] Then, the luminescence intensity of each well was measured using a plate reader (EnVision, PerkinElmer, Inc.). The extent of cell growth inhibition was calculated from the luminescence intensity of a sample-supplemented group (Ts) and a DMSO-supplemented group (Cs) measured on the inoculation date and a sample-supplemented group (T) and a DMSO-supplemented group (C) measured on the effect determination date according to the following expression: Extent of cell growth inhibition (%)={1−(T−Ts)/(C−Cs)}×100
(§3) When the number of cells in the sample-supplemented group is decreased on the determination date compared with the inoculation date (T<Ts), a cytocidal effect was calculated according to the following expression: Cytocidal rate (%)=(T−Ts)/Ts×(−100)

The test system of test [2] is LNCaP. The test is described as follows: Cell growth inhibitory activity evaluation, LNCaP. The format is cell-based. The settings on record: LNCaP (Prostate cancer). The protocol: as §1, §2, §3
In test [3] the test system is NCI-H1703. The test is described as follows: Cell growth inhibitory activity evaluation, NCI-H1703. To be noted: NCI-H1703 (Lung cancer). The format is cell-based. How it is done: as §1, §2, §3
For test [4], the system named is NCI-H522. In words: Cell growth inhibitory activity evaluation, NCI-H522. It is filed as cell-based. To be noted: NCI-H522 (Lung cancer). How it is done:
as §1, §2, §3

Test [5] has as its system LS180. In words: Cell growth inhibitory activity evaluation, LS180. The format is cell-based, human. The settings on record: LS180 (Colorectal cancer). The protocol: as §1, §2, §3
Test [6] concerns KOPN8. In words: Cell growth inhibitory activity evaluation, KOPN8. It is filed as cell-based. How it is done:
as §1, §2, §3

The test system of test [7] is G401 (human kidney-derived rhabdoid tumor). The test is described as follows: Cell growth inhibitory activity evaluation, G401. It is filed as cell-based. How it is done:
as §1, §2, §3

The test system of test [8] is SNF5 deletion mutant human kidney-derived rhabdoid tumor G401-subcutaneously transplanted model. The test is described as follows: Antitumor activity, G401-subcutaneously transplanted model. It is filed as in vivo, female BALB/c-nu/nu mice. To be noted: oral, QD × 12, 36 days after grouping. An excerpt: Evaluation of Antitumor Activity Against SNF5 Deletion Mutant Human Kidney-Derived Rhabdoid Tumor G401-Subcutaneously Transplanted Model
SNF5 deletion mutant human kidney-derived rhabdoid tumor G401 cells were subcutaneously transplanted in an amount of 1×10^7 cells/head to the right abdomens of female BALB/c-nu/nu mice. After 23 days, the mice were grouped on the basis of their presumed tumor volumes and body weights. The G401 cells were purchased from ATCC. […] The tumor volume of each individual was measured from the grouping date to 36 days thereafter (test completion date).

The subject of test [9] is MV4;11. The test is described as follows: Cell growth inhibitory activity evaluation, MV4;11. It is filed as cell-based. To be noted: MV4;11 (Leukemia). The protocol:
as §1, §2, §3

Test [10] has as its system THP-1. In words: Cell growth inhibitory activity evaluation, THP-1. It is filed as cell-based. The settings on record: THP-1 (Leukemia). The protocol: as §1, §2, §3
Test [11] relates to OVMANA. The test is described as follows: Cell growth inhibitory activity evaluation, OVMANA. It is filed as cell-based. To be noted: OVMANA (Ovarian cancer), read-out: Extent of cell growth inhibition. How it is done:
as §1, §2, §3

In test [12] the test system is RS4;11. The test is described as follows: Cell growth inhibitory activity evaluation, RS4;11. The format is cell-based. The settings on record: RS4;11 (Leukemia). How it is done:
as §1, §2, §3

Test [13] has as its system NCI-H520. The test is described as follows: Cell growth inhibitory activity evaluation, NCI-H520. To be noted: Homo sapiens, NCI-H520 (Lung cancer), read-out: Extent of cell growth inhibition. The format is cell-based. The protocol: as §1, §2, §3
Test [14] concerns EZH2 Y641N mutant human diffuse large B-cell lymphoma KARPAS-422-subcutaneously transplanted model. The test is described as follows: Antitumor activity, KARPAS-422-subcutaneously transplanted model. The settings on record: oral, QD × 14, 45 days after grouping. It is filed as in vivo, female SCID mice. From the text: Evaluation of Antitumor Activity Against EZH2 Y641N Mutant Human Diffuse Large B-Cell Lymphoma KARPAS-422-Subcutaneously Transplanted Model
EZH2 Y641N mutant human diffuse large B-cell lymphoma KARPAS-422 cells were subcutaneously transplanted in an amount of 2×10^7 cells/head to the right abdomens of female SCID mice. After 30 days, the mice were grouped on the basis of their presumed tumor volumes (major axis×minor axis×minor axis/2) and body weights. The KARPAS-422 cells were purchased from DSMZ. […] The tumor volume of each individual was measured from the grouping date to 45 days thereafter (test completion date).

Test [15] has as its system NCI-N87. In words: Cell growth inhibitory activity evaluation, NCI-N87. To be noted: NCI-N87 (Stomach cancer). The format is cell-based, human. The protocol: as §1, §2, §3
For test [16], the system named is NCI-H1563. The test is described as follows: Cell growth inhibitory activity evaluation, NCI-H1563. It is filed as cell-based. To be noted: Homo sapiens, NCI-H1563 (Lung cancer), read-out: Extent of cell growth inhibition. The protocol:
as §1, §2, §3

Test [17] relates to HepG2. In words: Cell growth inhibitory activity evaluation, HepG2. It is filed as cell-based. To be noted: Homo sapiens, HepG2 (Liver cancer), read-out: Extent of cell growth inhibition. The protocol:
as §1, §2, §3

Test [18] relates to human stomach cancer NCI-N87-subcutaneously transplanted model. In words: Antitumor activity, NCI-N87-subcutaneously transplanted model. It is filed as in vivo, female BALB/c-nu/nu mice. To be noted: oral, QD × 28, 82 days after grouping. How it is done:
Evaluation of Antitumor Activity Against Human Stomach Cancer NCI-N87-Subcutaneously Transplanted Model
Human stomach cancer NCI-N87 cells were subcutaneously transplanted in an amount of 8×10^6 cells/head to the right abdomens of female BALB/c-nu/nu mice. After 12 days, the mice were grouped on the basis of their presumed tumor volumes and body weights. The NCI-N87 cells were purchased from ATCC. […] The tumor volume of each individual was measured from the grouping date to 82 days thereafter (test completion date).

Test [19] concerns human colorectal cancer LS180-subcutaneously transplanted model. The test is described as follows: Antitumor activity, LS180-subcutaneously transplanted model. It is filed as in vivo, female SCID mice. To be noted: oral, BID × 13, 17 days after grouping. How it is done:
Evaluation of Antitumor Activity Against Human Colorectal Cancer LS180-Subcutaneously Transplanted Model
Human colorectal cancer LS180 cells were subcutaneously transplanted in an amount of 5×10^6 cells/head to the right abdomens of female SCID mice. After 3 days, the mice were grouped on the basis of their presumed tumor volumes and body weights. The LS180 cells were purchased from ATCC. […] The tumor volume of each individual was measured from the grouping date to 17 days thereafter (test completion date).

Where [20] appears, read: Homo sapiens, read-out: Extent of cell growth inhibition.

The structures appear in SMILES notation.

With `Cc1cc(C)c(CNC(=O)c2cc(Br)c3c(c2C)OC(C)([C@H]2CC[C@H](N(C)C)CC2)O3)c(=O)[nH]1` (relative stereo) [Example 14, 7-Bromo-2-[trans-4-(dimethylamino)cyclohexyl]-N-[(4,6-dimethyl-2-oxo-1,2-dihydropyridin-3-yl)methyl]-2,4-dimethyl-1,3-benzodioxole-5-carboxamide], the inhibition (commonly the relative decrease from the control value, in per cent) at 1 µM was over 100% in test [1] (setting [20]); over 100% in test [2] (setting [20]); over 100% in [3] (setting [20]); over 100% in [4] (setting [20]); over 100% in test [5] (setting [20]); over 100% in test [6] (Homo sapiens, KOPN-8, KOPN8 (Leukemia), read-out: Extent of cell growth inhibition). Besides, the inhibition at 1 µM is over 100% in test [7] (Homo sapiens, G-401, read-out: Extent of cell growth inhibition); over 100% in [9] (setting [20]); over 100% in test [10] (setting [20]); 95% in test [11]; over 100% in test [12] (setting [20]); 80% in test [13]. The inhibition at 1 µM in test [15] (setting [20]) was over 100%; in test [16], 56%; in test [17], 78%. Besides, the Cytocidal rate in test [1] (1 uM) turned out to be 100%; in test [2] (1 uM), 6%; in test [3] (1 uM), 49%; in test [4] (1 uM) it was 13%; in [5] (1 uM) it was 6%; in test [6] (KOPN8 (Leukemia), 1 uM), 99%. In addition, the Cytocidal rate in [7] (1 uM) turned out to be 100%; in [9] (1 uM) it was 88%; in test [10] (1 uM), 7%; in test [12] (1 uM), 94%; in [15] (1 uM) it was 15%. Further, the “Extent of tumor growth inhibition” value is over 100% in test [8] (G401, 50 mg/kg); over 100% in [8] (G401, 200 mg/kg); 26% in test [14] (KARPAS-422, 5 mg/kg); 80% in test [14] (KARPAS-422, 25 mg/kg); over 100% in test [14] (KARPAS-422, 200 mg/kg). Moreover, the “Extent of tumor regression” value in [8] (G401, 50 mg/kg) stood at 19%; in test [8] (G401, 200 mg/kg), 29%; in test [14] (KARPAS-422, 200 mg/kg) it was 50%.
Take `Cc1cc(C)c(CNC(=O)c2cc(Cl)c3c(c2C)OC(C)([C@H]2CC[C@H](N(C)C)CC2)O3)c(=O)[nH]1` (relative stereo) [Example 34, 7-Chloro-2-[trans-4-(dimethylamino)cyclohexyl]-N-[(4,6-dimethyl-2-oxo-1,2-dihydropyridin-3-yl)methyl]-2,4-dimethyl-1,3-benzodioxole-5-carboxamide]: the “Extent of tumor growth inhibition” value in [18] (NCI-N87, 50 mg/kg) is reported as 80%; in test [18] (NCI-N87, 200 mg/kg), 87%; in [8] (G401, 50 mg/kg), over 100%; in [8] (G401, 200 mg/kg) it was over 100%; in [14] (KARPAS-422, 5 mg/kg), 44%; in test [14] (KARPAS-422, 25 mg/kg) it was 76%. Also, the “Extent of tumor growth inhibition” value is given as over 100% in test [14] (KARPAS-422, 200 mg/kg); 8% in [19] (LS180, 50 mg/kg); 73% in test [19] (LS180, 200 mg/kg). In addition, the “Extent of tumor regression” value in test [8] (G401, 50 mg/kg) came out at 22%; in test [8] (G401, 200 mg/kg) it was 17%; in test [14] (KARPAS-422, 200 mg/kg), 52%.

For the origin of these results see patent publication US10954219B2, “1,3-benzodioxole derivative” (DAIICHI SANKYO COMPANY, LIMITED, priority 2014, dated 2021).
